Here are results for five compounds from patent US20160222122A1, “INTEGRIN-MODULATING THERAPIES FOR TREATING FIBROTIC DISEASE” (The Johns Hopkins University, priority 2013, published 2016).

“Also recorded” adds a separate entry of the source.

Experiment [1] deals with T1, integrin αvβ3 in its active conformation (Homo sapiens, UniProt P05106+P06756).
T1 construct: endogenous in cells; host or cells: control fibroblasts (read as primary human dermal fibroblasts from healthy controls)
Briefly: Specificity of WOW-1 antibody for active integrin αvβ3 in control fibroblasts by flow cytometry. Format: cell-based. As to conditions: 10 mM EDTA, 2 mM MnCl2. On the procedure:
For histograms, FlowJo software divides all events into 256 “bins,” which are numerical ranges for the parameter on the x-axis. The percent of maximum (yaxis) is the number of cells in each bin divided by the number of cells in the bin that contains the largest number of cells. Gating for live cells was based on staining with the LIVE/DEAD® Fixable Dead Cell Stain Kit (Invitrogen, cat#L34955). All staining was performed with fluorophore-conjugated primary and isotype control antibodies. All antibodies were either purchased as fluorochrome conjugates or conjugated via amine-based Alexa Fluor antibody labeling kits (cat#A-20181, A20187, A-20185, A-20186, Invitrogen). Mouse and human active αvβ3 was detected fluorophore-conjugated WOW-1 antibody (a gift from Dr. Sanford Shattil). 10 mM Ethylenediaminetetraacetic acid (EDTA) and 2 mM MnCl2 were used as negative and positive controls for αvβ3 activation in flow cytometry experiments (FIG. 20B). Integrin αvβ5, a subtype known to react with the WOW-1 antibody, was monitored in mouse and human cells with a specific antibody (cat#LS-C36943, Lifespan Biosciences).
On the technique in general: In flow cytometry, cells or beads pass a laser one at a time.

The subject of experiment [2] is Fbn1D1545E/+ and Fbn1W1572C/+ mice (SSS mouse models). Briefly: In vivo drug treatment of SSS mouse models: clinical stiffness score and stretched skin area/total surface area ratio. The conditions noted are these: RDEA119 25 mg/kg twice daily by oral gavage, 8 weeks from 1 month of age. The method, then: (§1) All antibodies used to treat mice or cells were azide-free. Male mice were treated with β1 integrin activating antibody (β1aAb, Rat Clone 9EG7, BD Biosciences, special-ordered >98% pure and azide-free) or an isotype-matched control (Rat IgG2a, κ, special-ordered >98% pure and azide-free, BD Biosciences) by intraperitoneal injection at 2 mg/kg every five days for twelve weeks, beginning at one month of age. Complete blood cell counts were performed to exclude pancytopenia in β1aAb-treated animals (FIG. 20A). For the TGFβ-Neutralizing trial, three-month-old male mice were treated with pan-specific TGFβ-Neutralizing antibody (Mouse Clone 1D11, catalog #MAB1835, R&D) or an isotype control (Mouse IgG1, Clone 11711, cat#MAB002, R&D) by intraperitoneal injection at 10 mg/kg every other day for twelve weeks.
RDEA119 was generously provided by Craig J. Thomas, Samarjit Patnaik, and Juan J. Marugan (National Institutes of Health Chemical Genomics Center, Rockville, Md., USA). RDEA119 was reconstituted in 10% 2-hydroxypropyl-betacyclodextrin (Sigma-Aldrich) dissolved in PBS, and administered twice daily by oral gavage at a dose of 25 mg/kg. […]
A clinical stiffness score was assigned by five blinded observers. […] Mice were assessed in random order. […] Early in the course of studies, the same mice were assessed by the same observer on a different day. […]

The test system is the same in experiment [3]. As to the kind of experiment: Histology (Masson's trichrome) and immunofluorescence of back skin of treated SSS mice. Format: in vivo. The conditions noted are these: RDEA119 25 mg/kg twice daily oral gavage, 8 weeks. The method, then: as §1
RDEA119 was generously provided by Craig J. Thomas, Samarjit Patnaik, and Juan J. Marugan (National Institutes of Health Chemical Genomics Center, Rockville, Md., USA). […]
For tissue analysis, animals were euthanized through inhalational halothane (Sigma) or anesthetized with isofluorane. […] Dermal and subcutaneous fat thickness was measured using high-powered fields as described previously. […] Active αvβ3 was detected using the WOW-1 antibody (a gift from Dr. Sanford Shattil) and an anti-mouse Alexa Fluor-594 F(ab′)2 fragment secondary (Invitrogen cat#A11020). […]

Experiment [4] concerns SSc fibroblasts. Briefly: qPCR of miR-29a and collagen mRNAs in cultured SSc fibroblasts. Format: cell-based, human. The conditions noted are these: inhibitors SD208 (1 μM), U0126 (10 μM). On the procedure: Primary human dermal fibroblasts (HDFs) were derived from skin biopsies from 5 patients with active diffuse systemic sclerosis and 6 healthy controls. Biopsies were taken from the forearm and cultured as previously described. All experiments were performed in cell lines at low (<5) passage. Primary mouse embryonic fibroblasts (MEFs) were derived from E13.5 embryos as described previously. Murine plasmacytoid dendritic cells (pDCs) were isolated from the spleens of wild-type C57B16/J mice using the Plasmacytoid Dendritic Cell Isolation Kit II (cat#130-092-786, Miltenyi Biotec) and a midiMACS™ Separator (cat#130-042-302, Miltenyi Biotec) according to the manufacturer's instructions. The pDC-containing cell suspensions routinely had greater than 95% purity, as detected by flow cytometry.
(§2) All cells were counted at splitting and all treatments were performed at 70% confluency. Cells were serum starved 48 hours prior to stimulation with 2 ng/mL recombinant TGFβ1 (cat#240-B-010, R&D). When TGFβ1 or vehicle was added, cell culture dishes were immediately rocked on the same rocker three times at 5% CO2, 37° to control for mechanical MAPK activation. Before lysate harvest, cells were washed with pre-warmed (42°) 1×PBS (Gibco®). All antibody treatments of human fibroblasts were added during starvation 48 hours before TGFβ1 stimulation while inhibitors SD208 (1 μM) and UO126 (10 μM) (cat#s 616456 and 662005, EMD Millipore) were added 6 hours prior to stimulation. Antibodies used in vitro were mouse IgG1 (0.2 mg/mL, Clone P3.6.2.8.1, cat#16-4714-81, eBiosciences), IgG2a (0.2 mg/mL, Clone eBM2a, cat#16-4724, eBiosciences), αvβ3-blocking (30 μg/mL, Clone LM609, cat#MAB1976Z, Millipore), β1-activating (7 μg/mL, Clone TS2/16, cat#14-0299, eBiosciences), and β1-blocking (0.2 mg/mL, Clone P4C10, cat#MAB1987Z, Millipore) antibodies.
Total RNA was isolated from cultured cells or tissue using Trizol (Invitrogen) according to the manufacturer's protocol. Quantitative PCR for miR-29a and 18S rRNA was performed using pre-designed Taqman primers and probes (ABI) according to manufacturer's instructions. Relative quantification for each transcript was obtained by normalizing against 18S transcript abundance according to the formula 2^−Ct/2^−Ct(18S).
For orientation: Quantitative PCR measures a nucleic acid by following its amplification.

The test system of experiment [5] is SSc fibroblasts. As to the kind of experiment: In vitro TGFβ1 stimulation of SSc dermal fibroblasts, Western blotting of pSMAD3 and pERK1/2. The class given is cell-based, human. The method, then: as §2
Before lysate harvest, cells were washed with pre-warmed ([…]) 1×PBS (Gibco®). […] The relative intensities were measured using LiCor Odyssey software. […]

T1 sequence (P06756 31-889 limits assumed): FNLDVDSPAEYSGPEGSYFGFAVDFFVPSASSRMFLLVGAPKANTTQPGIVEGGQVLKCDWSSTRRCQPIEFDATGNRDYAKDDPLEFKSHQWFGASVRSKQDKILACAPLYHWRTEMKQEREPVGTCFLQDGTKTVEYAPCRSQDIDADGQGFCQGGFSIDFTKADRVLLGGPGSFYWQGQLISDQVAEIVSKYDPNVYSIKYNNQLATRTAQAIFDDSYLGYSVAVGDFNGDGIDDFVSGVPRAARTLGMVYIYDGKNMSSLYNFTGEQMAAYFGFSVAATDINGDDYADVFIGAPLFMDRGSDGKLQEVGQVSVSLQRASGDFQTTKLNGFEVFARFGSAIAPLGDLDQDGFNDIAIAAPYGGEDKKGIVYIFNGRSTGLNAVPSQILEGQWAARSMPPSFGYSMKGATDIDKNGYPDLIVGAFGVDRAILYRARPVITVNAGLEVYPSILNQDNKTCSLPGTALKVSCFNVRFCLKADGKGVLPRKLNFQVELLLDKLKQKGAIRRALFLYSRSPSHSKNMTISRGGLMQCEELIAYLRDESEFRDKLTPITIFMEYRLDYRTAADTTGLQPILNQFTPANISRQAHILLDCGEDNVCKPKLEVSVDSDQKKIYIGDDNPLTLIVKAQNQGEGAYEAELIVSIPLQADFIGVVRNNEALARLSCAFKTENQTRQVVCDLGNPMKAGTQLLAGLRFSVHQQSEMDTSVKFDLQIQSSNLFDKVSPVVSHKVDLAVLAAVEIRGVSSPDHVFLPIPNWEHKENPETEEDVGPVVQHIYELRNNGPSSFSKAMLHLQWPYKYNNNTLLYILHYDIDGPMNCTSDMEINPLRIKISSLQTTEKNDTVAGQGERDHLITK
T1 sequence (P06756 891-1048 partner limits assumed): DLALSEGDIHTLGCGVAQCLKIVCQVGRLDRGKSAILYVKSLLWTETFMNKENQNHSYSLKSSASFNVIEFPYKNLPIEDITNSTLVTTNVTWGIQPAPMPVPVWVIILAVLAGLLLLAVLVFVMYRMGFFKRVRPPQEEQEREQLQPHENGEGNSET
T1 sequence (P05106 27-788): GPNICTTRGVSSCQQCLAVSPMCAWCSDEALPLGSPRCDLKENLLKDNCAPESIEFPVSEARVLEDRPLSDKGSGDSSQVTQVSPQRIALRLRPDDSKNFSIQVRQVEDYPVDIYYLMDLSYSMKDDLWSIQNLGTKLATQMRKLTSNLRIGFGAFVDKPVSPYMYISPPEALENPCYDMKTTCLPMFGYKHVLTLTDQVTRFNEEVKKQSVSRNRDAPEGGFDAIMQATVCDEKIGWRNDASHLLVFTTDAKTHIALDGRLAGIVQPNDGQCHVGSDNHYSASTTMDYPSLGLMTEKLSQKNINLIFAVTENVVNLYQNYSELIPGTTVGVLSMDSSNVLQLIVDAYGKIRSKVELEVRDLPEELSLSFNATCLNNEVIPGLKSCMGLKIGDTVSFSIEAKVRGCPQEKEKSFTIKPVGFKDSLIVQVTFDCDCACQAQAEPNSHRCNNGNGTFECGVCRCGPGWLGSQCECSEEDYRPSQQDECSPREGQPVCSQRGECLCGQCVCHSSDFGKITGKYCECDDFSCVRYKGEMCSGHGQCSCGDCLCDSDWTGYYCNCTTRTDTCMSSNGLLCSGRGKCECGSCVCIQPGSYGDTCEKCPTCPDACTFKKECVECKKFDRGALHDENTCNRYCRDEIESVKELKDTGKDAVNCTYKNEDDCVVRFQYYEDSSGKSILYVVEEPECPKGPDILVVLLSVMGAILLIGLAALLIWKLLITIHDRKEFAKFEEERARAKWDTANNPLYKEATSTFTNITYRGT

On to `O=C(O)CN(CCN(CC(=O)O)CC(=O)O)CC(=O)O` [EDTA, Ethylenediaminetetraacetic acid], for which the WOW-1 immunoreactivity result in experiment [1] is given as “reduced immunoreactivity”.

As to `[Cl][Mn][Cl]` [MnCl2], the WOW-1 immunoreactivity entry in experiment [1] is “increased immunoreactivity”.

On to `COc1cc(F)c(F)c(Nc2ccc(I)cc2F)c1NS(=O)(=O)C1(C[C@H](O)CO)CC1` [RDEA119], for which the skin stiffness entry in experiment [2] is reported as “prevents skin stiffness”. In experiment [3], the dermal collagen accumulation entry is recorded as “prevents” and the “loss of subcutaneous fat” value was “prevents”.

Consider `Fc1ccc(Cl)cc1-c1nc(Nc2ccncc2)c2nccnc2n1` [SD208], for which, in the experiment with SSc fibroblasts [4], the “expression of miR-29a” value was “increased expression of miR-29a, this finding did not reach significance; also recorded: normalized”; the “expression of type IA2 and III collagen genes” value was “normalized”. Moreover, the “ERK1/2 activation (pERK1/2) in response to TGFβ1” value with SSc fibroblasts [5] (2 ng/mL TGFβ1, 5 minutes, antibodies added 48 hours before, SD208 1 μM 6 hours prior) is on record as “inhibited; also recorded: sensitive”. In the experiment on SSc fibroblasts [5] (2 ng/mL TGFβ1, SD208 1 μM 6 hours prior), the “Smad3 phosphorylation (pSMAD3) in response to TGFβ1” value is recorded as “sensitive”.

Take `N#CC(=C(/N)Sc1ccccc1N)/C(C#N)=C(\N)Sc1ccccc1N` [U0126]: in the experiment on SSc fibroblasts [4], the “expression of miR-29a” value is “increased miR-29a levels; also recorded: increases miR-29a expression”; the “expression of type IA2 and III collagen genes” value was “reduced collagen expression; also recorded: reduces type IA2 and III collagen expression”.
